This note sets out measurements from US8722849B2, “Polypeptides” (Novo Nordisk A/S, priority 2011, dated 2014).

SMILES strings stand for the structures. In brackets after ≈: the same amount, converted by molar mass. Read-outs that look alike come from different tables or passages of the source. Starred links: 1 amine or outer side, 2 acyl side, 3 side chain; linkers in the order of their positions; H or OH if unused. Positions of bridges follow the written chain, without caps; N, C: chain ends. Residues, ends and D or L forms follow the SMILES beside them. *: point of attachment. C20 diacid = O=C(O)CCCCCCCCCCCCCCCCCCC(=O)*; γGlu = O=C(O)[C@H](CCC(=O)[*:2])N[*:1]

The term EC50 denotes the midpoint of the concentration-response curve. By solubility is commonly meant the dissolved amount per volume that the medium holds.

Series [1] has as its target T1, human amylin receptor (amylin 3(a) receptor: human calcitonin receptor + RAMP-3) (Homo sapiens, UniProt O60896+P30988).
T1 construct: expressed in transfected cells; host or cells: BHK570
T1 sequence (P30988 25-474): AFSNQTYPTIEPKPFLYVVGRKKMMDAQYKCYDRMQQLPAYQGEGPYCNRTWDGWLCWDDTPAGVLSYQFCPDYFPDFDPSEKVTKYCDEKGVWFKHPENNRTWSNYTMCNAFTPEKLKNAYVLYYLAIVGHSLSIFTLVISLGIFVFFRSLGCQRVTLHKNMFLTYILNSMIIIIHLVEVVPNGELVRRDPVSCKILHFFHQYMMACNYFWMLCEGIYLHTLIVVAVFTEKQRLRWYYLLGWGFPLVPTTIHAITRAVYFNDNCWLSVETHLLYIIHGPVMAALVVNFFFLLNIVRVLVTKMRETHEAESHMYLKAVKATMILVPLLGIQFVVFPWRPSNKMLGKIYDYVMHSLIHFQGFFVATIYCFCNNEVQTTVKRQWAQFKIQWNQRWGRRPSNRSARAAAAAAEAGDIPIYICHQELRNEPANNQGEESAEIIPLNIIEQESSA
T1 sequence (O60896 24-148 partner): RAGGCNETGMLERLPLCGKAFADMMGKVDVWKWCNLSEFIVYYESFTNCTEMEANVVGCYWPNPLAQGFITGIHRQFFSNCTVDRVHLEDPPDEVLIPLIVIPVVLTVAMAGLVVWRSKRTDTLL
The series is described as follows: Assay (II)a functional CRE-luciferase assay, human amylin receptor. It is filed as cell-based. The source says: (§1) 1. Luciferase Assay Outline
(§2) Activation of calcitonin and amylin (coexpression of calcitonin receptor and receptor activity modifying proteins (RAMP)) receptors lead to increased intracellular concentrations of cAMP. Consequently, transcription is activated by promoters containing multiple copies of the cAMP response element (CRE). It is thus possible to measure amylin activity by the use of a CRE luciferase reporter gene introduced into BHK cells also expressing calcitonin or amylin receptors.
(§3) A BHK570 cell line was stably transfected with the human calcitonin receptor and a CRE-responsive luciferase reporter gene. The cell line was further transfected with RAMP-3, using standard methods. This turns the calcitonin receptor into an amylin 3(a) receptor. Methotrexate, Neomycin, and Hygromycin are selection markers for luciferase, the calcitonin receptor, and RAMP-3, respectively.
(§4) To perform activity assays, BHK calcitonin (a) receptor- or amylin 3(a)-receptor/CRE-luc cells were seeded in white 96 well culture plates at a density of about 20.000 cells/well. […] Further, 50 μl/well of standard or sample in assay buffer were added. After 3 hours incubation at 37° C. and 5% CO2, the assay medium with standard or sample were removed and replaced by 100 μl/well PBS. Further, 100 μl/well LucLite™ was added. The plates were sealed and incubated at room temperature for 30 minutes. Finally, luminescence was measured on a TopCounter (Packard) in SPC (single photon counting) mode.

For series [2], the target named is T2, human calcitonin receptor (Homo sapiens, UniProt P30988).
T2 construct: expressed in transfected cells; host or cells: BHK570
T2 sequence (P30988 25-474): T1 sequence (P30988 25-474)
The series is described as follows: Assay (II)a functional CRE-luciferase assay, human calcitonin receptor. Format: cell-based.
Text: as §1, §2, §3, §4

Series [3] in a line: Assay (IV) determination of solubility. It is filed as physicochemical. The method, boiled down:
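Polypeptide in water (~500 nmol/ml stock) was mixed 1:1 with 100 mM buffers from pH 3.0 to 8.0 (glycylglycine pH 3.0–5.0; bistrispropane pH 6.0–8.0). After 18 hours at room temperature, samples were centrifuged and the polypeptide remaining in solution was quantified by HPLC.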

Setting [4] is: Table 7, human calcitonin (CTa) receptor.

Take `CC[C@H](C)[C@H](NC(=O)[C@@H]1CCCN1C(=O)CNC(=O)[C@H](Cc1ccccc1)NC(=O)[C@H](CC(N)=O)NC(=O)[C@H](CC(N)=O)NC(=O)[C@H](CO)NC(=O)[C@H](CO)NC(=O)[C@H](CCCNC(=N)N)NC(=O)[C@@H](NC(=O)[C@H](CC(C)C)NC(=O)[C@H](Cc1ccccc1)NC(=O)[C@H](CCC(=O)O)NC(=O)[C@H](C)NC(=O)[C@H](CC(C)C)NC(=O)[C@H](CCCNC(=N)N)NC(=O)[C@H](CCC(N)=O)NC(=O)[C@@H](NC(=O)[C@H](C)NC(=O)[C@@H]1CSSC[C@H](NC(=O)[C@H](Cc2cnc[nH]2)NC(=O)CC[C@H](NC(=O)CCCCCCCCCCCCCCCCCCC(=O)O)C(=O)O)C(=O)N[C@@H](CC(N)=O)C(=O)N[C@@H]([C@@H](C)O)C(=O)N[C@@H](C)C(=O)N[C@@H]([C@@H](C)O)C(=O)N1)[C@@H](C)O)C(C)C)C(=O)N[C@@H](CC(C)C)C(=O)N1CCC[C@H]1C(=O)N1CCC[C@H]1C(=O)N[C@H](C(=O)N[C@@H](CC(N)=O)C(=O)N[C@H](C(=O)NCC(=O)N[C@@H](CO)C(=O)N[C@@H](CC(N)=O)C(=O)N[C@H](C(=O)N[C@@H](Cc1ccc(O)cc1)C(N)=O)[C@@H](C)O)C(C)C)[C@@H](C)O` [Example 15, N-alpha-[(S)-4-Carboxy-4-(19-carboxynonadecanoylamino)butyryl]-[His1,Glu14,Arg18]-pramlintide] ({C20 diacid-γGlu}-HCNTATCATQRLAEFLVRSSNNFGPILPPTNVGSNTY-NH2; disulfide 2-7): the EC50 was determined as 0.083 nM in series [1] (Table 2, BHK amylin 3(a)-receptor/CRE-luc cells) and 0.125 nM in series [2] (setting [4]). Besides, the solubility at 18 h in series [3] (bistrispropane buffer, pH 7.5, pH 7.5, read-out: Solubility pH 7.5) is 56 µM (≈ 249 µg/mL); in series [3] (bistrispropane buffer, pH 8, pH 8.0, read-out: Solubility pH 8.0), 134 µM (≈ 596 µg/mL); in series [3] (glycylglycine buffer, pH 3, pH 3.0, read-out: Solubility pH 3.0), greater than 200 µM; in series [3] (glycylglycine buffer, pH 4, pH 4.0, 18 hours at room temperature, Table 2, read-out: Solubility pH 4.0) it was greater than 200 µM; in series [3] (glycylglycine buffer, pH 4, pH 4.0, read-out: Solubility pH 4.0), greater than 200 µM; in series [3] (pH 5.0, read-out: Solubility pH 5.0) it was 10 µM (≈ 44.5 µg/mL). Moreover, the solubility at 18 h in series [3] (pH 6.0, read-out: Solubility pH 6.0) came to 1 µM (≈ 4.45 µg/mL); in series [3] (pH 6.5, read-out: Solubility pH 6.5), 1 µM (≈ 4.45 µg/mL); in series [3] (pH 7.0, read-out: Solubility pH 7.0), 10 µM (≈ 44.5 µg/mL).

In the case of `CC[C@H](C)[C@H](NC(=O)[C@@H]1CCCN1C(=O)CNC(=O)[C@H](Cc1ccccc1)NC(=O)[C@H](CC(N)=O)NC(=O)[C@H](CC(N)=O)NC(=O)[C@H](CO)NC(=O)[C@H](CO)NC(=O)[C@H](CCCNC(=N)N)NC(=O)[C@H](Cc1c[nH]cn1)NC(=O)[C@H](CC(C)C)NC(=O)[C@H](Cc1ccccc1)NC(=O)[C@H](CCC(=O)O)NC(=O)[C@H](C)NC(=O)[C@H](CC(C)C)NC(=O)[C@H](CCCNC(=N)N)NC(=O)[C@H](CCC(N)=O)NC(=O)[C@@H](NC(=O)[C@H](CCC(=O)O)NC(=O)[C@@H]1CSSC[C@H](NC(=O)[C@H](Cc2c[nH]cn2)NC(=O)CC[C@H](NC(=O)CCCCCCCCCCCCCCCCCCC(=O)O)C(=O)O)C(=O)N[C@@H](CC(N)=O)C(=O)N[C@@H]([C@@H](C)O)C(=O)N[C@@H](C)C(=O)N[C@@H]([C@@H](C)O)C(=O)N1)[C@@H](C)O)C(=O)N[C@@H](CC(C)C)C(=O)N1CCC[C@H]1C(=O)N1CCC[C@H]1C(=O)N[C@H](C(=O)N[C@@H](CC(N)=O)C(=O)N[C@H](C(=O)NCC(=O)N[C@@H](CO)C(=O)N[C@@H](CC(N)=O)C(=O)N[C@H](C(=O)N[C@@H](Cc1ccc(O)cc1)C(N)=O)[C@@H](C)O)C(C)C)[C@@H](C)O` [Example 2, N-alpha-[(S)-4-Carboxy-4-(19-carboxynonadecanoylamino)butyryl]-[His1,Glu8,Glu14,His17,Arg18]-pramlintide] ({C20 diacid-γGlu}-HCNTATCETQRLAEFLHRSSNNFGPILPPTNVGSNTY-NH2; disulfide 2-7 (inferred)), the EC50 in series [1] (Table 6, human amylin receptor) came to 0.602 nM; in series [2] (Table 11, read-out: CTa receptor human EC50), 4.3 nM.

In the case of `CC[C@H](C)[C@H](NC(=O)[C@@H]1CCCN1C(=O)CNC(=O)[C@H](Cc1ccccc1)NC(=O)[C@H](CC(N)=O)NC(=O)[C@H](CC(N)=O)NC(=O)[C@H](CO)NC(=O)[C@H](CO)NC(=O)[C@H](Cc1c[nH]cn1)NC(=O)[C@H](CCCNC(=N)N)NC(=O)[C@H](CC(C)C)NC(=O)[C@H](Cc1ccccc1)NC(=O)[C@H](CCCNC(=N)N)NC(=O)[C@H](C)NC(=O)[C@H](CC(C)C)NC(=O)[C@H](CCCNC(=N)N)NC(=O)[C@H](CCC(N)=O)NC(=O)[C@@H](NC(=O)[C@H](C)NC(=O)[C@@H]1CSSC[C@H](NC(=O)[C@H](CCCCN)NC(=O)CC[C@H](NC(=O)CCCCCCCCCCCCCCCCCCC(=O)O)C(=O)O)C(=O)N[C@@H](CC(N)=O)C(=O)N[C@@H]([C@@H](C)O)C(=O)N[C@@H](C)C(=O)N[C@@H]([C@@H](C)O)C(=O)N1)[C@@H](C)O)C(=O)N[C@@H](CC(C)C)C(=O)N1CCC[C@H]1C(=O)N1CCC[C@H]1C(=O)N[C@H](C(=O)N[C@@H](CC(N)=O)C(=O)N[C@H](C(=O)NCC(=O)N[C@@H](CO)C(=O)N[C@@H](CC(N)=O)C(=O)N[C@H](C(=O)N1CCC[C@H]1C(N)=O)[C@@H](C)O)C(C)C)[C@@H](C)O` [Example 152, N-alpha-[(S)-4-Carboxy-4-(19-carboxynonadecanoylamino)butyryl]-[Arg14,Arg17,Pro37]-pramlintide] ({C20 diacid-γGlu}-KCNTATCATQRLARFLRHSSNNFGPILPPTNVGSNTP-NH2; disulfide 2-7 (inferred); C-terminus assumed), the EC50 in series [1] (Table 7, human amylin receptor) was found to be 0.129 nM; in series [2] (setting [4]), 0.453 nM.

As to `CC[C@H](C)[C@H](NC(=O)[C@@H]1CCCN1C(=O)CNC(=O)[C@H](Cc1ccccc1)NC(=O)[C@H](CC(N)=O)NC(=O)[C@H](CC(N)=O)NC(=O)[C@H](CO)NC(=O)[C@H](CO)NC(=O)[C@H](Cc1c[nH]cn1)NC(=O)[C@H](CCCNC(=N)N)NC(=O)[C@H](CC(C)C)NC(=O)[C@H](Cc1ccccc1)NC(=O)[C@H](CCC(=O)O)NC(=O)[C@H](C)NC(=O)[C@H](CC(C)C)NC(=O)[C@H](CCCNC(=N)N)NC(=O)[C@H](CCC(N)=O)NC(=O)[C@@H](NC(=O)[C@H](C)NC(=O)[C@@H]1CSSC[C@H](NC(=O)[C@H](CCCNC(=N)N)NC(=O)CNC(=O)CC[C@H](NC(=O)CCCCCCCCCCCCCCCCCCC(=O)O)C(=O)O)C(=O)N[C@@H](CC(N)=O)C(=O)N[C@@H]([C@@H](C)O)C(=O)N[C@@H](C)C(=O)N[C@@H]([C@@H](C)O)C(=O)N1)[C@@H](C)O)C(=O)N[C@@H](CC(C)C)C(=O)N1CCC[C@H]1C(=O)N1CCC[C@H]1C(=O)N[C@H](C(=O)N[C@@H](CC(N)=O)C(=O)N[C@H](C(=O)NCC(=O)N[C@@H](CO)C(=O)N[C@@H](CC(N)=O)C(=O)N[C@H](C(=O)N1CCC[C@H]1C(N)=O)[C@@H](C)O)C(C)C)[C@@H](C)O` [Example 153, N-alpha-[(S)-4-Carboxy-4-(19-carboxynonadecanoylamino)butyryl]-Gly-[Arg1,Glu14,Arg17,Pro37]-pramlintide] ({C20 diacid-γGlu}-GRCNTATCATQRLAEFLRHSSNNFGPILPPTNVGSNTP-NH2; disulfide 3-8 (inferred)), the EC50 in series [1] (Table 6, human amylin receptor) is 0.043 nM; in series [2] (setting [4]) it was 0.041 nM.
